In patent US20230137562A1, “TAU AGGREGATION INHIBITORS” (priority 2017, published 2023):
Ends that are not written are not given here. Peptide text beside a SMILES is read from it. TAMRA = tetramethyl rhodamine dye

B1: [TAMRA]-RRRRRRRRRR-GGSGG-WRIWIRYW (peptide)
peptide: {TAMRA}-RRRRRRRRRRGGSGGWRIWIRYW
B2: [TAMRA]-RRRRRRRRR-GGSGG-WRLKVRWW (peptide)
peptide: {TAMRA}-RRRRRRRRRGGSGGWRLKVRWW
B3: RRRRRRRRR-GGSGG-LFYLRLT (peptide)
peptide: RRRRRRRRRGGSGGLFYLRLT

Assays:
Ac-VQIINK-NH2 = biological target: T1, Ac-VQIINK-NH2 (Homo sapiens, UniProt P10636); test: Inhibition of VQIINK aggregation with peptide inhibitors (ThT); format: biochemical
T1 construct: made in house; host or cells: chemical peptide synthesis
Description: The following describes the experimental method used to evaluate the IC50 of aggregation of VQIINK (SEQ ID NO:220) inhibition by the peptide inhibitors described above. The peptide sequence comprising Ac-VQIINK-NH2 (C-terminal amidated (SEQ ID NO: 220)) is prepared using the peptide synthetic method described above. The Ac-VQIINK-NH2 (SEQ ID NO: 220) is stored at 10 mM in 100% DMSO at −80° C., and an aliquot volume sufficient for a single aggregation assay plate is removed. The stock aggregation buffer (5×) is prepared with the following: 250 mM NaPhosphate (pH 8.0), 125 mM KCl, and 500 micromolar ThioflavinT (ThT). The aggregation assay is conducted with shaking, at room temperature, on a plate reader model FLX-800 by BioTek. Water for primary Ac-VQIINK-NH2 (SEQ ID NO: 220) dissolution is cooled to 4 degrees Celsius (7.245 milliliters). Buffer is added from the 5×stock (40 microliters, final volume in assay plate is 130 microliters, final buffer concentrations 50 millimolar NaPO4 (pH 8.0); 25 milllimolar KCl; and 100 micromolar ThioflavinT). The assay plate is cooled to 4 degrees Celsius. The Ac-VQIINK-NH2 (105 microliters (SEQ ID NO: 220)) is added to the chilled water (final volume of 7.350 milliliters), this is added into a pooled reservoir, and using a 96-channel robotic pipettor, 70 microliters diluted Ac-VQIINK-NH2 (SEQ ID NO: 220) is added to the assay plate to achieve a final concentration of 50 micromolar in a 200 microliter final assay volume (per well). Data is acquired using Magellan software. The calculation of IC50 is done by an automatic algorithm developed using the R statistical programing language. Briefly, the algorithm uses data exported in excel format from the plate reader to average the cumulative ThT fluorescence for each inhibitor concentration in the 6-point dose response. The IC50 is calculated as the midpoint of a sigmoid curve fitted to the correlation of normalized ThT fluorescence and inhibitor concentration.

Tau40P301L protein = biological target: T2, Tau40P301L protein (Homo sapiens, UniProt P10636, P618L); test: biochemical; details: IC50 (μM), Tau40 assay
T2 construct: His; made in house; host or cells: E. coli BL21
Description: The following describes the experimental method used to evaluate the IC50 of Tau amyloid inhibition by the peptide inhibitors described above. The physical setup of inhibitor peptides in these dose responses is done automatically with an 8-span head on a BioMek3000 liquid handler into Costar optically 96-well clear bottom black plates. Inhibitor peptides are kept frozen at −80° C. in 100% dimethylsulfoxide (DMSO) solution at a concentration of 20 mM and thawed immediately before the assay. The Biomek makes two serial dilutions of a single inhibitor for a duplicate 6-point dose response curve. This is followed by addition a 5×reaction buffer. The final reaction buffer concentration in the assay is 50 mM MES, pH 6.8, 125 mM NaCl, 10 μM Heparin, 50 μM ThT. The Tau substrate is added by a 96-head Multimek liquid handler making a 4:10 dilution of Tau40P301L protein to which DTT is added directly before setting up the assay. The P301 L mutant of tau is associated with features of human tauopathies (Comb et al., supra; Lewis et al., Nature Genetics 25: 402-405 (2000)). The final concentrations of Tau40P301L and DTT in the assay is 2.5 μM and 5 mM, respectively. Amyloid formation is measured by monitoring Thioflavin T (ThT) fluorescence every 10 minutes with excitation and emission wavelengths of 440 and 485 nm using fluorescence plate readers. The assay plates are kept in the plate reader during the whole duration of the assay, and incubated at 37° C. with continuous shaking for 24 hours. Plate reader models Genios and Spectrafluor Plus produced by Tecan are used and data is acquired using Magellan software. The calculation of IC50 is done by an automatic algorithm developed using the R statistical programing language. Briefly, the algorithm uses data exported in excel format from the plate reader to average the cumulative ThT fluorescence for each inhibitor concentration in the 6-point dose response. The IC50 is calculated as the midpoint of a sigmoid curve fitted to the correlation of normalized ThT fluorescence and inhibitor concentration.

[1] = biological target: TauRD (P301S)-Nluc and TauRD (P301S)-Cluc split luciferase compliment pair (human, UniProt P10636-8 244-372; P10636-8 244-372); test: cell-based or functional assay
His-Tau40P301L Tau = His-Tau40P301L Tau (UniProt P10636-8 1-441); test: cell-based or functional assay
Sequence of His-Tau40P301L Tau (P10636 other isoform, or with tags, fused parts or gaps limits assumed): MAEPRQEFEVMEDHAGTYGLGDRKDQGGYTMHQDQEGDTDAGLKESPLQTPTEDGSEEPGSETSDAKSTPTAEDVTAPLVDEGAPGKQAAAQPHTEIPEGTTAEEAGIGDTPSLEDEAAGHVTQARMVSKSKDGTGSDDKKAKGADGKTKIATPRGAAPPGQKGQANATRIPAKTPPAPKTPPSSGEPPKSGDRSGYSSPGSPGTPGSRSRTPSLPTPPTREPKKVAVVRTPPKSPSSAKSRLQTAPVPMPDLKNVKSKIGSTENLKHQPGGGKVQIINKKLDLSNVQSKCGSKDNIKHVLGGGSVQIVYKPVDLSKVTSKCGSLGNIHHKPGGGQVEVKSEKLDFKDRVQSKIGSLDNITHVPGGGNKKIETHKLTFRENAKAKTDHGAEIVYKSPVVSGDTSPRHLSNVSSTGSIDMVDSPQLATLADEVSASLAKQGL

T2 sequence (P10636 1-441 isoform P10636-8 P301L): as the sequence (P10636 other isoform, or with tags, fused parts or gaps limits assumed) above
Sequence of TauRD (P301S)-Nluc and TauRD (P301S)-Cluc split luciferase compliment pair (P10636 561-689 P618S, chain 1 of 2): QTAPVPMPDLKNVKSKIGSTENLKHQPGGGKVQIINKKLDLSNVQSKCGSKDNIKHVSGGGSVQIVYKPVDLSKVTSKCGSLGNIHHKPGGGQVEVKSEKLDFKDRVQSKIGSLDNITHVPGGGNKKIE
Sequence of TauRD (P301S)-Nluc and TauRD (P301S)-Cluc split luciferase compliment pair (P10636 561-689 P618S, chain 2 of 2): as the sequence (P10636 561-689 P618S, chain 1 of 2) above

Molecule | IC50 (Ac-VQIINK-NH2) [µM] | further results
CC[C@H](C)[C@H](NC(=O)[C@H](CCCNC(=N)N)NC(=O)[C@@H](N)Cc1c[nH]c2ccccc12)C(=O)N[C@@H](Cc1c[nH]c2ccccc12)C(=O)N[C@@H](CC(C)C)C(=O)N[C@@H](CCCNC(=N)N)C(=O)N[C@@H](Cc1ccc(O)cc1)C(=O)N[C@@H](Cc1c[nH]c2ccccc12)C(=O)O [compound 17] (H-WRIWLRYW-OH) | 2.32 | 
CC[C@H](C)[C@H](NC(=O)[C@H](CCCNC(=N)N)NC(=O)[C@@H](NC(=O)[C@@H](N)CCCNC(=N)N)[C@@H](C)CC)C(=O)N[C@@H](Cc1c[nH]c2ccccc12)C(=O)N[C@@H](CC(C)C)C(=O)N[C@@H](Cc1c[nH]c2ccccc12)C(=O)O [compound 26] (H-RIRIWLW-OH) | 1.93 | 
CC[C@H](C)[C@H](N)C(=O)N[C@@H](Cc1c[nH]c2ccccc12)C(=O)N[C@H](C(=O)N[C@@H](CCCNC(=N)N)C(=O)N[C@@H](CC(C)C)C(=O)N[C@@H](Cc1c[nH]c2ccccc12)C(=O)O)[C@@H](C)CC [compound 50] (H-IWIRLW-OH) | 2.12 | 
CC[C@H](C)[C@H](NC(=O)[C@@H](N)CCCNC(=N)N)C(=O)N[C@@H](CCCNC(=N)N)C(=O)N[C@@H](CC(C)C)C(=O)N[C@@H](Cc1c[nH]c2ccccc12)C(=O)N[C@@H](Cc1ccc(O)cc1)C(=O)N[C@@H](Cc1c[nH]c2ccccc12)C(=O)O [compound 60] (H-RIRLWYW-OH) |  | IC50 (Tau40P301L protein): 8.01 µM
CC[C@H](C)[C@H](NC(=O)[C@H](CCCNC(=N)N)NC(=O)[C@@H](NC(=O)[C@H](Cc1c[nH]c2ccccc12)NC(=O)[C@@H](N)Cc1c[nH]c2ccccc12)[C@@H](C)CC)C(=O)N[C@@H](CCCNC(=N)N)C(=O)N[C@@H](Cc1ccc(O)cc1)C(=O)N[C@@H](Cc1c[nH]c2ccccc12)C(=O)N[C@@H](CC(C)C)C(=O)O [compound 65] (H-WWIRIRYWL-OH) | 4.88 | IC50 (Tau40P301L protein): 1.31 µM
CC[C@H](C)[C@H](NC(=O)[C@H](CCC(N)=O)NC(=O)[C@@H](NC(=O)[C@H](CCCNC(=N)N)NC(=O)[C@@H](N)Cc1c[nH]c2ccccc12)[C@@H](C)CC)C(=O)N[C@@H](CCCNC(=N)N)C(=O)N[C@@H](Cc1c[nH]c2ccccc12)C(=O)O [compound 69] (H-WRIQIRW-OH) | 2.17 | 
CC[C@H](C)[C@H](NC(=O)[C@H](C)NC(=O)[C@@H](N)Cc1c[nH]c2ccccc12)C(=O)N[C@@H](CCCNC(=N)N)C(=O)N[C@H](C(=O)N[C@@H](CCCNC(=N)N)C(=O)N[C@@H](Cc1c[nH]c2ccccc12)C(=O)O)[C@@H](C)CC [compound 124] (H-WAIRIRW-OH) | 1.94 | 
CC[C@H](C)[C@H](NC(=O)[C@H](Cc1ccccc1)NC(=O)[C@@H](NC(=O)[C@H](CCCNC(=N)N)NC(=O)[C@@H](N)Cc1c[nH]c2ccccc12)[C@@H](C)CC)C(=O)N[C@@H](CCCNC(=N)N)C(=O)N[C@@H](Cc1c[nH]c2ccccc12)C(=O)O [compound 136] (H-WRIFIRW-OH) | 9.13 | 
CC[C@H](C)[C@H](NC(=O)[C@H](CCCNC(=N)N)NC(=O)[C@@H](NC(=O)[C@H](CCCNC(=N)N)NC(=O)[C@@H](N)CC(C)C)[C@@H](C)CC)C(=O)N[C@@H](CCCNC(=N)N)C(=O)N[C@@H](Cc1c[nH]c2ccccc12)C(=O)O [compound 139] (H-LRIRIRW-OH) | 4.31 | 
CC[C@H](C)[C@H](NC(=O)[C@H](CCCNC(=N)N)NC(=O)[C@@H](NC(=O)[C@@H](N)Cc1c[nH]c2ccccc12)[C@@H](C)CC)C(=O)N[C@@H](CCCNC(=N)N)C(=O)N[C@@H](Cc1ccc(O)cc1)C(=O)N[C@@H](Cc1c[nH]c2ccccc12)C(=O)O [compound 152] (H-WIRIRYW-OH) | 6.02 | IC50 (Tau40P301L protein): 2.6 µM
CC[C@H](C)[C@H](NC(=O)[C@H](Cc1c[nH]c2ccccc12)NC(=O)[C@@H](NC(=O)[C@H](CCCNC(=N)N)NC(=O)[C@@H](N)CC(C)C)[C@@H](C)CC)C(=O)N[C@@H](CCCNC(=N)N)C(=O)N[C@@H](Cc1ccc(O)cc1)C(=O)N[C@@H](CC(C)C)C(=O)O [compound 155] (H-LRIWIRYL-OH) | 1.74 | 
CC[C@H](C)[C@H](NC(=O)[C@H](CCCNC(=N)N)NC(=O)[C@@H](N)Cc1c[nH]c2ccccc12)C(=O)N[C@@H](Cc1c[nH]c2ccccc12)C(=O)N[C@@H](C)C(=O)N[C@@H](CCCNC(=N)N)C(=O)N[C@@H](Cc1ccc(O)cc1)C(=O)N[C@@H](Cc1c[nH]c2ccccc12)C(=O)O [compound 163] (H-WRIWARYW-OH) |  | IC50 (Tau40P301L protein): 2.95 µM
CC[C@H](C)[C@H](N)C(=O)N[C@@H](Cc1c[nH]c2ccccc12)C(=O)N[C@H](C(=O)N[C@@H](CCCNC(=N)N)C(=O)N[C@@H](Cc1ccc(O)cc1)C(=O)N[C@@H](Cc1c[nH]c2ccccc12)C(=O)O)[C@@H](C)CC [compound 180] (H-IWIRYW-OH) | 5.43 | 
CC[C@H](C)[C@H](NC(=O)[C@@H](N)CCCCN)C(=O)N[C@@H](CCCNC(=N)N)C(=O)N[C@@H](CC(C)C)C(=O)N[C@@H](Cc1ccc(O)cc1)C(=O)N[C@@H](Cc1c[nH]c2ccccc12)C(=O)N[C@@H](Cc1c[nH]c2ccccc12)C(=O)O [compound 194] (H-KIRLYWW-OH) | 2.86 | 
CC[C@H](C)[C@H](NC(=O)[C@H](Cc1c[nH]c2ccccc12)NC(=O)[C@@H](NC(=O)[C@H](CCCNC(=N)N)NC(=O)[C@@H](N)Cc1c[nH]c2ccccc12)[C@@H](C)CC)C(=O)N[C@@H](CCCNC(=N)N)C(=O)N[C@@H](CC(C)C)C(=O)N[C@@H](Cc1c[nH]c2ccccc12)C(=O)O [compound 202] (H-WRIWIRLW-OH) | 3.97 | 
B1 |  | EC50 (µM), HEK cell assay, split luciferase complementation [1]: 4.1 µM; IC50 (µM), Tau40 assay-Modified peptides (ThT) (His-Tau40P301L Tau): 12.6 µM
B2 |  | EC50 (µM), HEK cell assay, split luciferase complementation [1]: 8.2 µM; IC50 (µM), Tau40 assay-Modified peptides (ThT) (His-Tau40P301L Tau): 7.3 µM
B3 |  | EC50 (µM), HEK cell assay, split luciferase complementation [1]: 9.6 µM
